Experimental data as given in PubChem BioAssay AID330 (DTP/NCI, 2004).
“And” between values parts separate entries of the source, which are not always exact repeats. Identical values can stand only once. Toxic doses and inconclusive results are not listed. Rule for the calls: active = survival T/C of 150% or more; inactive = T/C below 125% in these data. Peptide text beside a SMILES is read from it.

System: P388 leukemia ip, CD2F1 mice, survival T/C
Test: NCI In Vivo Anticancer Drug Screen. Data for tumor model P388 Leukemia (intraperitoneal) in CD2F1 (CDF1) mice
Conditions: endpoint: median survival time, higher = longer survival
Procedure, shortened: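 Mice carrying the transplanted tumor received test compound or vehicle. Survival was recorded in each group, and the value is the treated-group measurement divided by that of the vehicle-treated control group.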

[1] = dose: 50.0 mg/kg/injection, schedule: Q01DX009 (ip), vehicle: saline with Tween-80
[2] = dose: 100.0 mg/kg/injection, schedule: Q01DX009 (ip), vehicle: saline with Tween-80
[3] = dose: 200.0 mg/kg/injection, schedule: Q01DX009 (ip), vehicle: saline with Tween-80
[4] = dose: 50.0 mg/kg/injection, schedule: Q01DX005 (ip), vehicle: saline with Tween-80
[5] = dose: 100.0 mg/kg/injection, schedule: Q01DX005 (ip), vehicle: saline with Tween-80
[6] = dose: 200.0 mg/kg/injection, schedule: Q01DX005 (ip), vehicle: saline with Tween-80
[7] = dose: 50.0 mg/kg/injection, schedule: Q01DX005 (ip), vehicle: Klucel (hydroxypropylcellulose) (HPC)
[8] = dose: 100.0 mg/kg/injection, schedule: Q01DX005 (ip), vehicle: Klucel (hydroxypropylcellulose) (HPC)
[9] = dose: 200.0 mg/kg/injection, schedule: Q01DX005 (ip), vehicle: Klucel (hydroxypropylcellulose) (HPC)
[10] = dose: 50.0 mg/kg/injection, schedule: Q01DX009 (ip), vehicle: saline
[11] = dose: 100.0 mg/kg/injection, schedule: Q01DX009 (ip), vehicle: saline
[12] = dose: 200.0 mg/kg/injection, schedule: Q01DX009 (ip), vehicle: saline
[13] = dose: 100.0 mg/kg/injection, schedule: Q01DX001 (ip), vehicle: suspension in saline
[14] = dose: 100.0 mg/kg/injection, schedule: Q01DX001 (ip), vehicle: saline
[15] = dose: 200.0 mg/kg/injection, schedule: Q01DX001 (ip), vehicle: saline
[16] = dose: 400.0 mg/kg/injection, schedule: Q01DX001 (ip), vehicle: saline

Measured: T/C

CC1(OC(=O)c2ccccc2)CC2(CCCCC2)N=N1 (centres undefined)
inactive: dose: 12.5 mg/kg/injection, schedule: Q01DX009 (ip), vehicle: saline with Tween-80 113 % of control | dose: 25.0 mg/kg/injection, schedule: Q01DX009 (ip), vehicle: saline with Tween-80 105 % of control | [1] 112 % of control | [2] 107 % of control | [3] 105 % of control

CC(=O)Nc1ccc([Se](N)=O)cc1 (centres undefined)
inactive: [4] 89 % of control | [5] 103 % of control | [6] 111 % of control

CC1OC(=O)/C(=C\N(C)C)C1=O (centres undefined)
inactive: [7] 105 % of control | [8] 111 % of control | [9] 109 % of control

COc1cc(OC)c2c(c1)OC(=O)C(C(C)=O)C2 (centres undefined)
inactive: [4] 96 % of control | [5] 112 % of control

CC(C)CC(NC(=O)C(NC(=O)C(N)C(C)O)C(C)C)C(=O)O (stereo not drawn) (H-Thr-Val-Leu-OH; configuration not given here)
inactive: [7] 95 % of control | [8] 101 % of control | [9] 104 % of control

N#Cc1cnn(-c2cccc(Cl)c2)c1-n1cccc1
inactive: [1] 100 % of control | [2] 100 % of control | [3] 93 % of control

CCOc1ccc(Cc2nc3c([nH]2)c(=O)n(C)c(=O)n3C)cc1OCC
inactive: dose: 50.0 mg/kg/injection, schedule: Q04DX003 (ip), vehicle: saline with Tween-80 104 % of control | dose: 100.0 mg/kg/injection, schedule: Q04DX003 (ip), vehicle: saline with Tween-80 103 % of control | dose: 200.0 mg/kg/injection, schedule: Q04DX003 (ip), vehicle: saline with Tween-80 113 % of control and 95 % of control

C/C=C/C(C#N)OC(C)=O (centres undefined)
inactive: dose: 3.75 mg/kg/injection, schedule: Q01DX005 (ip), vehicle: saline 100 % of control | dose: 7.5 mg/kg/injection, schedule: Q01DX005 (ip), vehicle: saline 100 % of control

CCO/C(C)=N\P(=O)(Oc1ccccc1)Oc1ccccc1
inactive: dose: 12.5 mg/kg/injection, schedule: Q01DX009 (ip), vehicle: distilled water + Tween-80 105 % of control | dose: 25.0 mg/kg/injection, schedule: Q01DX009 (ip), vehicle: distilled water + Tween-80 102 % of control | dose: 50.0 mg/kg/injection, schedule: Q01DX009 (ip), vehicle: distilled water + Tween-80 110 % of control | dose: 100.0 mg/kg/injection, schedule: Q01DX009 (ip), vehicle: distilled water + Tween-80 102 % of control

CCCCCCC(/C=C/c1ccc(Cl)c(Cl)c1)=N\NC(N)=S
inactive: [10] 105 % of control | [11] 106 % of control | [12] 107 % of control

c1ccc(CCn2cccc/c2=N/C(=NC2CCCCC2)NC2CCCCC2)cc1
inactive: [13] 91 % of control | dose: 200.0 mg/kg/injection, schedule: Q01DX001 (ip), vehicle: suspension in saline 88 % of control | dose: 400.0 mg/kg/injection, schedule: Q01DX001 (ip), vehicle: suspension in saline 92 % of control

CNC(=O)C(NC(=O)C(NC(=O)c1c2nc3c(C(=O)NC(C(=O)NC(C(=O)NC)C(C)C)C(C)O)ccc(C)c3oc-2c(C)c(=O)c1N)C(C)O)C(C)C (centres undefined)
inactive: dose: 0.05 mg/kg/injection, schedule: Q01DX009 (ip), vehicle: water 101 % of control | dose: 0.1 mg/kg/injection, schedule: Q01DX009 (ip), vehicle: water 110 % of control | dose: 0.2 mg/kg/injection, schedule: Q01DX009 (ip), vehicle: water 100 % of control | dose: 0.4 mg/kg/injection, schedule: Q01DX009 (ip), vehicle: water 99 % of control | dose: 0.8 mg/kg/injection, schedule: Q01DX009 (ip), vehicle: water 108 % of control | dose: 1.6 mg/kg/injection, schedule: Q01DX009 (ip), vehicle: water 99 % of control and 90 % of control | dose: 3.2 mg/kg/injection, schedule: Q01DX009 (ip), vehicle: water 97 % of control | dose: 6.4 mg/kg/injection, schedule: Q01DX009 (ip), vehicle: water 97 % of control | dose: 12.8 mg/kg/injection, schedule: Q01DX009 (ip), vehicle: water 99 % of control

N#CC1=C(C#N)SCCCS1
inactive: [10] 100 % of control | [11] 100 % of control | [12] 99 % of control

CC(/C=N\NC(=S)SCc1ccccc1)=N/NC(N)=S
inactive: [14] 106 % of control | [15] 106 % of control | [16] 103 % of control

CC(C)(C)C(=O)C=C(C(F)(F)F)C(F)(F)F
inactive: dose: 6.25 mg/kg/injection, schedule: Q01DX009 (ip), vehicle: saline 91 % of control | dose: 12.5 mg/kg/injection, schedule: Q01DX009 (ip), vehicle: saline 86 % of control | dose: 25.0 mg/kg/injection, schedule: Q01DX009 (ip), vehicle: saline 113 % of control

O=S(=O)(CC(O)C(Cl)(Cl)Cl)N1CCCCC1 (centres undefined)
inactive: dose: 50.0 mg/kg/injection, schedule: Q01DX009 (ip), vehicle: Klucel (hydroxypropylcellulose) (HPC) 101 % of control | dose: 100.0 mg/kg/injection, schedule: Q01DX009 (ip), vehicle: Klucel (hydroxypropylcellulose) (HPC) 95 % of control | dose: 200.0 mg/kg/injection, schedule: Q01DX009 (ip), vehicle: Klucel (hydroxypropylcellulose) (HPC) 100 % of control

COc1ccccc1Nc1nc(-c2ccc(O)c(O)c2)cs1
inactive: [4] 97 % of control | [5] 89 % of control | [6] 103 % of control

CC(=O)NC1=C(O)C2C(c3ccc(C)cc3)C(C#N)C(=O)N2C1=O (centres undefined)
inactive: [14] 105 % of control | [15] 97 % of control | [16] 99 % of control

COc1cccc2c1C(CCCC(=O)O)CCC2 (centres undefined)
inactive: [7] 101 % of control | [8] 104 % of control | [9] 104 % of control

C=C(C)CC1(C)C(=O)CCC1O (centres undefined)
inactive: dose: 60.0 mg/kg/injection, schedule: Q01DX005 (ip), vehicle: saline with Tween-80 104 % of control | dose: 120.0 mg/kg/injection, schedule: Q01DX005 (ip), vehicle: saline with Tween-80 102 % of control | dose: 240.0 mg/kg/injection, schedule: Q01DX005 (ip), vehicle: saline with Tween-80 106 % of control

C[N+](C)(C)[N-]C(=N)c1ccccc1
inactive: dose: 25.0 mg/kg/injection, schedule: Q01DX001 (ip), vehicle: suspension in saline 102 % of control | dose: 50.0 mg/kg/injection, schedule: Q01DX001 (ip), vehicle: suspension in saline 104 % of control | [13] 99 % of control and 110 % of control

c1ccc2c(c1)C[n+]1ccc3ccccc3c1-c1c3ccccc3cc[n+]1C2
inactive: dose: 12.5 mg/kg/injection, schedule: Q01DX001 (ip), vehicle: saline 100 % of control | dose: 25.0 mg/kg/injection, schedule: Q01DX001 (ip), vehicle: saline 107 % of control

CN(c1ccccc1)c1cc2nc3ccccc3nc2cc1O
inactive: [10] 98 % of control | [11] 91 % of control

CCC(=O)/C=C/c1ccc(N(C)C)cc1
inactive: dose: 100.0 mg/kg/injection, schedule: Q04DX003 (ip), vehicle: Klucel (hydroxypropylcellulose) (HPC) 93 % of control | dose: 200.0 mg/kg/injection, schedule: Q04DX003 (ip), vehicle: Klucel (hydroxypropylcellulose) (HPC) 89 % of control

CCOC(=O)CN(CC(=O)OCC)c1ccccc1OCCOc1ccccc1N(CC(=O)OCC)CC(=O)OCC
inactive: dose: 60.0 mg/kg/injection, schedule: Q01DX005 (ip), vehicle: Klucel (hydroxypropylcellulose) (HPC) 95 % of control | dose: 120.0 mg/kg/injection, schedule: Q01DX005 (ip), vehicle: Klucel (hydroxypropylcellulose) (HPC) 96 % of control | dose: 240.0 mg/kg/injection, schedule: Q01DX005 (ip), vehicle: Klucel (hydroxypropylcellulose) (HPC) 93 % of control
